Columns and labels:
[1] = test system: recombinant GS-myeloma cell lines [mouse NS/O]; experiment: Growth and productivity of recombinant GS-myeloma NS/O cell lines in suspension culture; type: cell-based; conditions: for PEAK CELL DENSITY: 0.2 mg/l ferric ammonium citrate with 5 μM tropolone or 1 mg/l transferrin
Text: The efficacy of using tropolone as a transferrin replacement was further investigated using recombinant GS-myeloma cell lines [mouse NS/O] expressing humanised antibodies using the glutamine synthetase (GS) expression system, [Bebbington et al., Bio/Technology, 10, 169-175; European Patent Specification No. 256055].

[2] = test system: mouse hybridoma cell line; experiment: Growth of mouse hybridoma cells in transferrin-free medium with iron chelators, static 24-well culture, 3 days; type: cell-based
Procedure: A mouse hybridoma cell line previously subcultured in a serum-free medium containing 1 μg/ml human transferrin was centrifuged and resuspended in transferrin-free medium twice. […] 100×concentrates of the iron chelators to be tested (8-hydroxyquinoline, tropolone, mimosine, maltol or picolinic acid) were prepared in water and filter sterilised. 10 μl of each iron chelator was dispersed into wells of a 24 well costar plate and then 1 ml of cell suspension added. […] Control wells contained either 10 μl water (negative control) or 10 μl of 100 μg/ml human transferrin solution (positive control). Plates were incubated for 3 days in a humidified incubator under a 5% CO2—95% air atmosphere at 36.5° C. under static conditions. After 3 days samples of dispersed cell suspensions from individual wells were analysed using a Coulter Multisizer to determine cell concentration.

[3] = test system: mouse myeloma cell line [GS-NSO]; experiment: Growth of GS-NSO myeloma cells in protein-free LS1 medium, shake flasks; type: cell-based; conditions: 5 μM tropolone, FIG. 5
Procedure: The LS1 medium additionally contained 2-hydroxypropyl-β-cyclodextrin [HPB; 1.2 g/l] complexed with cholesterol and fatty acids [prepared before addition to LS1 by dissolving HPB ([…]) in water and adding to an equal volume of a supplement containing cholesterol and the fatty acids previously dissolved in absolute alcohol, then agitating for 3 hours prior to centrifugation and filtering].

[4] = test system: animal cells; experiment: Support of growth in agitated animal cell culture at low iron concentration; type: cell-based
[5] = test system: mouse hybridoma cell line; conditions: 5 μM tropolone
Procedure: Flasks were gassed with an atmosphere of 5% CO2—95% air and incubated on an orbital shaking platform (120 rpm) at 36.5° C. for 3 days.
After 3 days samples were withdrawn from flasks and cell concentration determined using a Coulter multisizer.

[6] = test system: mouse hybridoma cell line; conditions: increasing concentrations up to 10 mg/l, transferrin-free medium, 3 days, FIG. 2A
Procedure: A mouse hybridoma cell line, previously subcultured in serum free medium containing human transferrin, was centrifuged and resuspended at 1.5×10^5 cells/ml in either transferrin-free or transferrin-containing serum-free medium. […] The flasks were gassed in 5% CO2—95% air atmosphere, sealed and incubated either static or on an orbital reciprocal shaking platform (120 rpm) at 36.5° C. for 3 days. Samples were then removed and cell concentration was determined by haemocytometry.

[7] = 5 μM tropolone vs 1 mg/l transferrin, 0.2 mg/l ferric ammonium citrate, three cell lines

TRANSFERRIN: human transferrin, natural iron-chelating protein used as positive control
PEAK CELL DENSITY ([1]; Cell line A): 1.3e+06 mL⁻¹ | PEAK CELL DENSITY ([1]; Cell line B): 1.46e+06 mL⁻¹ | PEAK CELL DENSITY ([1]; Cell line C): 2.62e+06 mL⁻¹

O=c1cccccc1O [tropolone, 2-hydroxy-2,4,6-cycloheptatrien-1-one]
growth rates compared with transferrin medium [1, 7]: similar | peak viable cell concentration compared with transferrin medium [1, 7]: similar | PEAK CELL DENSITY ([1]; Cell line A): 1.51e+06 mL⁻¹ | PEAK CELL DENSITY ([1]; Cell line B): 1.49e+06 mL⁻¹ | PEAK CELL DENSITY ([1]; Cell line C): 3.17e+06 mL⁻¹ | support of cell growth (cell concentration after 3 days) ([2]; 3 μM tropolone, 0.36 μM iron (0.1 mg/l ferric ammonium citrate), transferrin-free, FIG. 1A): as effective as 1 μg/ml of human transferrin at supporting cell growth | support of cell growth (cell concentration after 3 days) ([2]; 5 μM, 0.1 mg/l ferric ammonium citrate, FIG. 1B): effective at supporting cell growth | support of cell growth ([3]; 0.2 mg/l ferric ammonium citrate, LS1 medium with HPB or BSA carrier): able to support the growth of both cultures | support of growth in agitated cell culture [4]: can support growth

ferric ammonium citrate
time to death of myeloma cells (failed to thrive) ([1]; 0.2 mg/l ferric ammonium citrate in the absence of either tropolone or transferrin): ≤ 48 h | growth yield ([5]; data not shown): 3.3×10^7 cells/μg ferric ammonium citrate | concentration range giving maximum biomass ([5]; shaken 120 rpm, 3 days): 0.075 to 1 mg/L | effect on cell concentration in static culture [6]: support increasing cell concentrations

O=C(O)c1ccccn1 [picolinic acid, reference compound]
support of cell growth (cell concentration after 3 days) ([2]; 50 μM, 0.1 mg/l ferric ammonium citrate, FIG. 1B): much less effective

2-hydroxypropyl-β-cyclodextrin [reference compound]
performance as carrier for cholesterol and fatty acids (cell growth) ([3]; 1.2 g/l HPB in LS1 medium vs bovine serum albumin): an effective replacement for bovine serum albumin

O=C(O)CC(O)(CC(=O)O)C(=O)O [citrate]
support of growth in agitated cell culture [4]: has failed

CC(=O)CC(C)=O [acetylacetone, reference compound]
support of cell growth (cell concentration after 3 days) ([2]; 100 μM, 0.1 mg/l ferric ammonium citrate, FIG. 1B): much less effective

O=C(O)[C@H](O)[C@@H](O)[C@H](O)[C@H](O)CO [gluconate]
support of growth in agitated cell culture [4]: has failed

From patent publication US6593140B1, “Animal cell culture” (Lonza Group, AG, priority 1992, dated 2003)
